Reference: patent US20240208992A1, “MACROCYCLES AS CFTR MODULATORS” (Idorsia Pharmaceuticals Ltd, priority 2021, published 2024)

Target: human F508del-CFTR (Homo sapiens, UniProt P13569, DEL508-508)
Assay: F508del-CFTR cell surface expression (corrector activity), DiscoveRx ß-galactosidase complementation chemiluminescence assay in recombinant U2OS cell line;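 note: U2OS cells co-expressing ProLink-tagged F508del-CFTR and a membrane-anchored enzyme acceptor, where more surface CFTR restores β-galactosidase activity measured by chemiluminescence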
Conditions: for EC50: EC50, F508del-CFTR cell surface expression; for Emax: U2OS
[1] = U2OS cell line, 16h compound incubation, geomean values
[2] = in relation to the Emax of the corrector lumacaftor (=100%), U2OS cell line, 16h compound incubation, arithmetic mean values
[3] = U2OS cells, 16h compound incubation, geomean values
[4] = in relation to Emax of corrector lumacaftor (=100%), arithmetic mean values
[5] = U2OS cells, 16h compound incubation, geomean of several measurements
[6] = in relation to the Emax of the corrector lumacaftor (=100%), U2OS cells, 16h compound incubation, arithmetic mean

Chain of human F508del-CFTR (P13569 with tags, fused parts or gaps DEL508-508): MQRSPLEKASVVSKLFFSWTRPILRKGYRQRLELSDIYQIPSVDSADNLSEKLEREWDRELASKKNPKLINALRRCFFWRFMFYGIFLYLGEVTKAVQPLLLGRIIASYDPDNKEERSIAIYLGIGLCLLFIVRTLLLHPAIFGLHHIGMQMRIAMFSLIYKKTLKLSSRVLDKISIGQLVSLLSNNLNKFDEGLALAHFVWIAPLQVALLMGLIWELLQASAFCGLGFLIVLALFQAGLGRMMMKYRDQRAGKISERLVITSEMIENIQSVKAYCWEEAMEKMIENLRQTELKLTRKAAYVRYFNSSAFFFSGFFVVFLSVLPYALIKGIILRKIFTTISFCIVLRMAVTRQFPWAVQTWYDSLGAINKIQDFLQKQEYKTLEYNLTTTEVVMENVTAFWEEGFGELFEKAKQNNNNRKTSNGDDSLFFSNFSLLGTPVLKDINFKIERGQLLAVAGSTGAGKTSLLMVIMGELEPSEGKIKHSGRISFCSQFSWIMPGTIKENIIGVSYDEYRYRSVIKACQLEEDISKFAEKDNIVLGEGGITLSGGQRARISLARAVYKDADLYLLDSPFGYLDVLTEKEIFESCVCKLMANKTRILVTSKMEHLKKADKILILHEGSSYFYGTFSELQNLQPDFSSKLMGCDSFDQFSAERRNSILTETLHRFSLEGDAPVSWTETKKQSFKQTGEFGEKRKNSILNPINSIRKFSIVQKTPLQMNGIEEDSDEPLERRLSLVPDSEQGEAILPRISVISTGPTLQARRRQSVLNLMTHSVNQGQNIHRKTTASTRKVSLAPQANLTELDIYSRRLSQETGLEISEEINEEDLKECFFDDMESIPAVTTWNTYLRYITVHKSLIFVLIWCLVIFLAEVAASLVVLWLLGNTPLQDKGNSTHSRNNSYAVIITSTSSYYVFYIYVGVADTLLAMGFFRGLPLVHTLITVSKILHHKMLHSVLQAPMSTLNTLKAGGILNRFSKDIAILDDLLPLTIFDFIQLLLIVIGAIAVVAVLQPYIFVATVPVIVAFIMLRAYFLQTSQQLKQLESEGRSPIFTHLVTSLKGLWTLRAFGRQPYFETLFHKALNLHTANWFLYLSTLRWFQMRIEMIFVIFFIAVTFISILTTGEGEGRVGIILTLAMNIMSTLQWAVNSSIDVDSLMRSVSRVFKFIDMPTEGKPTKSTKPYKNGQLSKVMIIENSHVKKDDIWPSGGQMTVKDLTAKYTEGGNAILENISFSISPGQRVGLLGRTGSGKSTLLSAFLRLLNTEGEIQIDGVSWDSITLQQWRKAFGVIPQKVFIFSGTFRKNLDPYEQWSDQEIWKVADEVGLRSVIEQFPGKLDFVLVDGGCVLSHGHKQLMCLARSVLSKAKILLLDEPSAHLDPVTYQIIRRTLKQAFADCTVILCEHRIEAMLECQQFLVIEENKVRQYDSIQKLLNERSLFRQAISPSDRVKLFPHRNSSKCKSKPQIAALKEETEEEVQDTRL

| SMILES | EC50 [1] | Emax [2] | also measured |
| --- | --- | --- | --- |
| CCc1ccc(CCNC(=O)[C@@H]2CC(=O)N(C)[C@@H](CC(C)C)C(=O)N(C)CC(=O)N[C@H](Cc3ccccc3)COc3ccncc3C(=O)N2)cc1 [Example 252, (3R,9S,13S)-3-benzyl-N-(4-ethylphenethyl)-9-isobutyl-7,10-dimethyl-5,8,11,15-tetraoxo-2,3,4,5,6,7,8,9,10,11,12,13,14,15-tetradecahydropyrido[3,4-p][1]oxa[4,7,10,14]tetraazacycloheptadecine-13-carboxamide] | 888 nM | 111% |  |
| [2H]C1([2H])Oc2ccc3c(c2O1)C(=O)N[C@H](C(=O)NCCc1ccc2c(c1)OCO2)CC(=O)N(C)[C@@H](CC(C)C)C(=O)N(C)CC(=O)N[C@H](Cc1ccccc1)CO3 [Example 322, (8R,14S,18S)-N-(2-(benzo[d][1,3]dioxol-5-yl)ethyl)-8-benzyl-14-isobutyl-12,15-dimethyl-10,13,16,20-tetraoxo-7,8,9,10,11,12,13,14,15,16,17,18,19,20-tetradecahydro-[1,3]dioxolo[4′,5′:5,6]benzo[1,2-p][1]oxa[4,7,10,14]tetraazacycloheptadecine-2,2-d2-18-carboxamide] | 504 nM | 197% |  |
| CC(C)C[C@H]1C(=O)N(C)C2(CC2)C(=O)N[C@H](Cc2ccccc2)COc2cnc3ccc(F)cc3c2C(=O)N[C@H](C(=O)NCCc2c(F)cccc2F)CC(=O)N1C [Example 132, (3′S,7′S,13′R)-13′-benzyl-N-(2,6-difluorophenethyl)-20′-fluoro-7′-isobutyl-6′,9′-dimethyl-1′,5′,8′,11′-tetraoxo-2′,3′,4′,5′,6′,7′,8′,9′,11′,12′,13′,14′-dodecahydro-1′H-spiro[cyclopropane-1,10′-[1]oxa[4,7,10,14]tetraazacycloheptadecino[17,16-c]quinoline]-3′-carboxamide] | 110 nM | 313% |  |
| CC(C)C[C@H]1C(=O)N(CCOC(C)(C)C)CC(=O)N[C@H](Cc2ccccc2)COc2ccc3ccccc3c2C(=O)N[C@H](C(=O)NCCc2ccc3c(c2)OCO3)CC(=O)N1C [Example 335, (3S,7S,13R)-N-(2-(benzo[d][1,3]dioxol-5-yl)ethyl)-13-benzyl-9-(2-(tert-butoxy)ethyl)-7-isobutyl-6-methyl-1,5,8,11-tetraoxo-1,2,3,4,5,6,7,8,9,10,11,12,13,14-tetradecahydronaphtho[1,2-p][1]oxa[4,7,10,14]tetraazacycloheptadecine-3-carboxamide] | 270 nM | 262% |  |
| COc1cccc(CCNC(=O)[C@@H]2CC(=O)N(C)[C@@H](CC(C)C)C(=O)N3CCN(C(=O)c4cnccn4)C[C@@H]3C(=O)N[C@H](Cc3ccccc3)COc3ccc4ccccc4c3C(=O)N2)c1 [Example 753, (4aR,7R,18S,22S)-7-benzyl-22-isobutyl-N-(3-methoxyphenethyl)-21-methyl-5,16,20,23-tetraoxo-3-(pyrazine-2-carbonyl)-2,3,4,4a,5,6,7,8,16,17,18,19,20,21,22,23-hexadecahydro-1H-naphtho[1,2-p]pyrazino[2,1-f][1]oxa[4,7,10,14]tetraazacycloheptadecine-18-carboxamide] |  |  | EC50 [3]: 430 nM; Emax [4]: 264% |
| CO[C@H]1C[C@]2(C1)C(=O)N[C@H](Cc1ccccc1)COc1cnc3ccccc3c1C(=O)N[C@H](C(=O)NCCc1ccc(-n3nccn3)cc1)CC(=O)N(C)[C@@H](CC(C)C)C(=O)N2C [Example 493, (1r,3S,3′S,7′S,13′R)-N-(4-(2H-1,2,3-triazol-2-yl)phenethyl)-13′-benzyl-7′-isobutyl-3-methoxy-6′,9′-dimethyl-1′,5′,8′,11′-tetraoxo-2′,3′,4′,5′,6′,7′,8′,9′,11′,12′,13′,14′-dodecahydro-1′H-spiro[cyclobutane-1,10′-[1]oxa[4,7,10,14]tetraazacycloheptadecino[17,16-c]quinoline]-3′-carboxamide] |  |  | EC50 [3]: 687 nM; Emax [4]: 253% |
| CCOCC[C@@H]1C(=O)N[C@H](Cc2ccccc2)COc2ccc3ncc(F)cc3c2C(=O)N[C@H](C(=O)NCCc2cc(OC)no2)CC(=O)N(C)[C@@H](CC(C)C)C(=O)N1C [Example 895, (3S,7S,10R,13R)-13-benzyl-10-(2-ethoxyethyl)-20-fluoro-7-isobutyl-N-(2-(3-methoxyisoxazol-5-yl)ethyl)-6,9-dimethyl-1,5,8,11-tetraoxo-1,2,3,4,5,6,7,8,9,10,11,12,13,14-tetradecahydro-[1]oxa[4,7,10,14]tetraazacycloheptadecino[16,17-f]quinoline-3-carboxamide] |  |  | EC50 [5]: 136 nM; Emax [6]: 409% |
| COc1cnn(CCNC(=O)[C@@H]2CC(=O)N(C)[C@@H](CC(C)C)C(=O)N(C)C3(CC3)C(=O)N[C@H](Cc3ccccc3)COc3cnc4ccc(F)cc4c3C(=O)N2)c1 [Example 188, (3′S,7′S,13′R)-13′-benzyl-20′-fluoro-7′-isobutyl-N-(2-(4-methoxy-1H-pyrazol-1-yl)ethyl)-6′,9′-dimethyl-1′,5′,8′,11′-tetraoxo-2′,3′,4′,5′,6′,7′,8′,9′,11′,12′,13′,14′-dodecahydro-1′H-spiro[cyclopropane-1,10′-[1]oxa[4,7,10,14]tetraazacycloheptadecino[17,16-c]quinoline]-3′-carboxamide] | 586 nM | 275% |  |
| CC(C)C[C@H]1C(=O)N2CCCC[C@@H]2C(=O)N[C@H](Cc2ccccc2)COc2cnc3ccccc3c2C(=O)N[C@H](C(=O)NCCc2cc(C(F)(F)F)no2)CC(=O)N1C [Example 559, (9S,13S,19aR,22R)-22-benzyl-13-isobutyl-12-methyl-7,11,14,20-tetraoxo-N-(2-(3-(trifluoromethyl)isoxazol-5-yl)ethyl)-7,8,9,10,11,12,13,14,17,18,19,19a,20,21,22,23-hexadecahydro-16H-pyrido[2′,1′:6,7][1]oxa[4,7,10,14]tetraazacycloheptadecino[17,16-c]quinoline-9-carboxamide] |  |  | EC50 [3]: 155 nM; Emax [4]: 236% |
| COc1noc(CCNC(=O)[C@@H]2CC(=O)N(C)[C@@H](CC(C)C)C(=O)N3CCCC[C@@H]3C(=O)N[C@H](Cc3ccccc3)COc3ccc4ncc(F)cc4c3C(=O)N2)c1F [Example 973, (9S,13S,19aR,22R)-22-benzyl-5-fluoro-N-(2-(4-fluoro-3-methoxyisoxazol-5-yl)ethyl)-13-isobutyl-12-methyl-7,11,14,20-tetraoxo-7,8,9,10,11,12,13,14,17,18,19,19a,20,21,22,23-hexadecahydro-16H-pyrido[2′,1′:6,7][1]oxa[4,7,10,14]tetraazacycloheptadecino[16,17-f]quinoline-9-carboxamide] |  |  | EC50 [5]: 117 nM; Emax [6]: 446% |
| COc1cc2c(cc1OC)C(=O)N[C@H](C(=O)NCCc1ccc3c(c1)OCCC3)CC(=O)N(C)[C@@H](CC(C)C)C(=O)N(C)CC(=O)N[C@H](Cc1ccccc1)CO2 [Example 148, (3R,9S,13S)-3-benzyl-N-(2-(chroman-7-yl)ethyl)-9-isobutyl-17,18-dimethoxy-7,10-dimethyl-5,8,11,15-tetraoxo-2,3,4,5,6,7,8,9,10,11,12,13,14,15-tetradecahydrobenzo[p][1]oxa[4,7,10,14]tetraazacycloheptadecine-13-carboxamide] | 811 nM | 198% |  |
| CC(C)C[C@H]1C(=O)N(C)C2(CC2)C(=O)N[C@H](Cc2ccccc2)COc2cnc3ccccc3c2C(=O)N[C@H](C(=O)NCC(F)(F)c2ccccc2)CC(=O)N1C [Example 145, (3′S,7′S,13′R)-13′-benzyl-N-(2,2-difluoro-2-phenylethyl)-7′-isobutyl-6′,9′-dimethyl-1′,5′,8′,11′-tetraoxo-2′,3′,4′,5′,6′,7′,8′,9′,11′,12′,13′,14′-dodecahydro-1′H-spiro[cyclopropane-1,10′-[1]oxa[4,7,10,14]tetraazacycloheptadecino[17,16-c]quinoline]-3′-carboxamide] | 309 nM | 107% |  |
| CC(C)C[C@H]1C(=O)N2CCN(C3CCC3)C[C@@H]2C(=O)N[C@H](Cc2ccccc2)COc2cnc3ccccc3c2C(=O)N[C@H](C(=O)NCCc2ccc3c(c2)OCO3)CC(=O)N1C [Example 395, (9S,13S,19aR,22R)-N-(2-(benzo[d][1,3]dioxol-5-yl)ethyl)-22-benzyl-18-cyclobutyl-13-isobutyl-12-methyl-7,11,14,20-tetraoxo-7,8,9,10,11,12,13,14,17,18,19,19a,20,21,22,23-hexadecahydro-16H-pyrazino[2′,11:6,7][1]oxa[4,7,10,14]tetraazacycloheptadecino[17,16-c]quinoline-9-carboxamide] | 110 nM | 316% |  |
| CN1C(=O)C[C@@H](C(=O)NCCc2ccc3c(c2)OCO3)NC(=O)c2c(ccc3ccccc23)OC[C@@H](Cc2ccccc2)NC(=O)CN(CC[C@@H]2CCCCO2)C(=O)[C@@H]1CC1CCC1 [Example 360, (3S,7S,13R)-N-(2-(benzo[d][1,3]dioxol-5-yl)ethyl)-13-benzyl-7-(cyclobutylmethyl)-6-methyl-1,5,8,11-tetraoxo-9-(2-((S)-tetrahydro-2H-pyran-2-yl)ethyl)-1,2,3,4,5,6,7,8,9,10,11,12,13,14-tetradecahydronaphtho[1,2-p][1]oxa[4,7,10,14]tetraazacycloheptadecine-3-carboxamide] | 184 nM | 224% |  |
| COc1cc2c(cc1OC)C(=O)N[C@H](C(=O)NCCc1ccc3c(c1)OCO3)CC(=O)N(C)[C@@H](CC1CCCC1)C(=O)N(CCC1CCCCC1)CC(=O)N[C@H](Cc1ccccc1)CO2 (racemic) [Example 10, (3R,9S,13RS)-N-(2-(benzo[d][1,3]dioxol-5-yl)ethyl)-3-benzyl-7-(2-cyclohexylethyl)-9-(cyclopentylmethyl)-17,18-dimethoxy-10-methyl-5,8,11,15-tetraoxo-2,3,4,5,6,7,8,9,10,11,12,13,14,15-tetradecahydrobenzo[p][1]oxa[4,7,10,14]tetraazacycloheptadecine-13-carboxamide] | 82 nM | 123% |  |
